29 compounds from patent US8288390B2, “Benzofuran derivatives” (Takeda Pharmaceutical Company Limited, priority 2009, dated 2012) can be followed below.

Where a name gives a salt, the structure may show the parent alone.

For one experiment, the system named is rat mixed glial culture. Nature of the experiment: Activity of promoting neuronal neogenesis in rat mixed glial culture. The format is cell-based. The settings on record: Rattus norvegicus, 72 h, compound 1 μM + rhIGF-1 100 ng/ml, 3 days culture; absorbance at 450 nm (class III beta-tubulin antibody); control rhIGF-1 only = 100%; read-out: Increase Ratio of the Absorbance (% control). On the procedure: From a three-day old SD rat, hippocampus and cerebral cortex were removed. By using a kit of dispersion liquid for neuronal cells (MB-X9901, manufactured by SUMITOMO BAKELITE CO., LTD.), cell suspension was prepared and then seeded on a 96-well plate coated with collagen Type I (4860-010, manufactured by Asahi Techno Glass Co., Ltd.) to 10^5 cells/well. Under the condition of 37° C. and 5% CO2, the cells were cultured for four days in a growth medium (D-MEM/F12 with 10% FBS, comprising PS).
After culturing, the medium was exchanged with a medium for differentiation (D-MEM/F12, comprising PS), added with rhIGF-1 (R&D Systems, 291-G1-250, final concentration of 100 ng/ml) and the compound to 1 μM, followed by further culture for three days. Cultured cells were fixed with 4% paraformaldehyde-PBS (manufactured by MUTO PURE CHEMICALS CO., LTD.) and subjected to membrane penetration using 0.1% Triton X-100 PBS, followed by blocking with Block Ace solution (UK-B80, manufactured by Dainippon Sumitomo Pharma Co., Ltd.). As a primary antibody, Anti-neuron-specific class III beta-tubulin antibody (R&D Systems, MAB1195, clone Tuj-1) was used after 1000× dilution. As a secondary antibody, Anti-Mouse Ig, HRP-Linked F (ab′) 2 Fragment Sheep (Amersham Biosciences, NA9310) was used after 10000× dilution. For washing process, the plate washer (BIO-TEK INSTRUMENTS ELX405) was used. For a chromogenic reaction, the reaction was carried out for 10 minutes using TMB Microwell Peroxidase Substrate System (Kirkegaard & Perry Laboratories, 50-76-00), followed by terminating the reaction according to the addition of 1M phosphoric acid. By using the plate reader (Labsystems Multiskan BICHROMATIC), absorbance at 450 nm was measured.
The absorbance for the case in which no compound is added (i.e., control, rhIGF-1 only) was 100%, and the increase ratio of the absorbance for the compound addition (i.e., compound+rhIGF-1) compared to the control was obtained as % control. Activity of the each compound for promoting neuronal differentiation that is measured according to the above method is summarized in Table 9 and Table 10.
`CCOc1c(C)c(N2CCN(c3ccc(OC)cc3)CC2)c(C)c2c1OC(C)(C)C2` [Example 46, 1-(7-Ethoxy-2,2,4,6-tetramethyl-2,3-dihydro-1-benzofuran-5-yl)-4-(4-methoxyphenyl)piperazine]: the activity at 1 µM is 221%.

For `COc1c(C)c(N2CCN(c3ccc(C)cc3)CC2)c(C)c2c1OC(C)(C)C2` [Example 62, 1-(7-Methoxy-2,2,4,6-tetramethyl-2,3-dihydro-1-benzofuran-5-yl)-4-(4-methylphenyl)piperazine], the activity at 1 µM was above 500%. Regarding `COc1ccc(N2CCN(c3c(C)c(C)c4c(c3C)CC(C)(CN)O4)CC2)cc1` (centres unmarked) [Example 108, 1-{5-[4-(4-Methoxyphenyl)piperazin-1-yl]-2,4,6,7-tetramethyl-2,3-dihydro-1-benzofuran-2-yl}methaneamine], the activity at 1 µM turned out to be 282%. Take `COc1ccc(N2CCN(c3c(C)c(C)c4c(c3C)CC(C)(CNC(C)=O)O4)CC2)cc1` (centres unmarked) [Example 137, N-({5-[4-(4-methoxyphenyl)piperazin-1-yl]-2,4,6,7-tetramethyl-2,3-dihydro-1-benzofuran-2-yl}methyl)acetamide]: the activity at 1 µM is above 500%. For `COc1ccc(N2CCN(c3c(C)c(C)c4c(c3C)CC(C)(CN3CCC(O)CC3)O4)CC2)cc1` (centres unmarked) [Example 133, 1-({5-[4-(4-methoxyphenyl)piperazin-1-yl]-2,4,6,7-tetramethyl-2,3-dihydro-1-benzofuran-2-yl}methyl)piperidine-4-ol], the activity at 1 µM is above 500%. For the compound `COCC1(C)Cc2c(C)c(N3CCN(c4ccc(OC)cc4)CC3)c(C)c(C)c2O1` (centres unmarked) [Example 101, 1-[2-(Methoxymethyl)-2,4,6,7-tetramethyl-2,3-dihydro-1-benzofuran-5-yl]-4-(4-methoxyphenyl)piperazine hydrochloric acid salt], the activity at 1 µM is above 500%.

For the compound `COc1ccc(N2CCN(c3c(C)c4c(c(OC(C)C)c3C)OC(C)C4)CC2)cc1` (centres unmarked) [Example 55, 1-(4-Methoxyphenyl)-4-[2,4,6-trimethyl-7-(1-methylethoxy)-2,3-dihydro-1-benzofuran-5-yl]piperazine], the activity at 1 µM was above 500%. Still for that read-out and setting: to `Cc1c(C)c(N2CCN(c3ccc(S(C)(=O)=O)cc3)CC2)c(C)c2c1OC(C)(C)C2` [Example 92, 1-[4-(Methylsulfonyl)phenyl]-4-(2,2,4,6,7-pentamethyl-2,3-dihydro-1-benzofuran-5-yl)piperazine] belongs 457%; to `COc1cc(N2CCN(c3c(C)c(C)c4c(c3C)CC(C)(C)O4)CC2)ccc1F` [Example 38, 1-(4-Fluoro-3-methoxyphenyl)-4-(2,2,4,6,7-pentamethyl-2,3-dihydro-1-benzofuran-5-yl)piperazine], 294%; to `Cc1c(C)c(N2CCN(c3ccc(F)cc3)CC2)c(C)c2c1OC(C)(C)C2` [Example 41, 1-(4-Fluorophenyl)-4-(2,2,4,6,7-pentamethyl-2,3-dihydro-1-benzofuran-5-yl)piperazine], above 500%. Same read-out and setting: to `COc1ccc(N2CCN(c3c(C)c(C)c4c(c3C(C)C)CC(C)(C)O4)CC2)cc1` [Example 11, 1-(4-Methoxyphenyl)-4-[2,2,6,7-tetramethyl-4-(1-methylethyl)-2,3-dihydro-1-benzofuran-5-yl]piperazine] belongs 159%.

On to `Cc1c(C)c(N2CCN(c3nc(-c4ccccc4)ns3)CC2)c(C)c2c1OC(C)(C)C2` [Example 87, 1-(2,2,4,6,7-Pentamethyl-2,3-dihydro-1-benzofuran-5-yl)-4-(3-phenyl-1,2,4-thiadiazol-5-yl)piperazine], for which the activity at 1 µM amounted to 256%. In the case of `COc1ccc(N2CCN(c3c(C)c(C)c4c(c3-c3ccc(N(C)C)cc3)CC(C)(C)O4)CC2)cc1` [Example 5, 4-{5-[4-(4-Methoxyphenyl)piperazin-1-yl]-2,2,6,7-tetramethyl-2,3-dihydro-1-benzofuran-4-yl}-N,N-dimethylaniline], the activity at 1 µM is 488%.

As to `Cc1c(C)c(N2CCOC(Cc3ccccc3)C2)c(C)c2c1OC(C)(C)C2` (centres unmarked) [Example 16, 2-Benzyl-4-(2,2,4,6,7-pentamethyl-2,3-dihydro-1-benzofuran-5-yl)morpholine], the activity at 1 µM came out at 344%.

Regarding `COc1ccc(N2CCN(c3cc4c(cc3-c3ccc(C)cc3)OC(C)(C)C4)CC2)cc1` [Example 2, 1-[2,2-Dimethyl-6-(4-methylphenyl)-2,3-dihydro-1-benzofuran-5-yl]-4-(4-methoxyphenyl)piperazine], the activity at 1 µM stood at 432%. On the same count and under the same terms, to `CC(=O)c1ccc(N2CCN(c3c(C)c(C)c4c(c3C)CC(C)(C)O4)CC2)cc1` [Example 95, 1-{4-[4-(2,2,4,6,7-Pentamethyl-2,3-dihydro-1-benzofuran-5-yl)piperazin-1-yl]phenyl}ethanone] belongs 405%; to `Cc1cc(N2CCN(c3c(C)c(C)c4c(c3C)CC(C)(C)O4)CC2)ccc1F` [Example 35, 1-(4-Fluoro-3-methylphenyl)-4-(2,2,4,6,7-pentamethyl-2,3-dihydro-1-benzofuran-5-yl)piperazine], 182%.

For the compound `CCOc1ccc(N2CCN(c3c(C)c4c(c(OCC)c3C)OC(C)C4)CC2)cc1` (centres unmarked) [Example 61, 1-(4-Ethoxyphenyl)-4-(7-ethoxy-2,4,6-trimethyl-2,3-dihydro-1-benzofuran-5-yl)piperazine], the activity at 1 µM is above 500%.

`COc1ccc(N2CCCN(c3c(C)c(C)c4c(c3C)CC(C)(C)O4)CC2)cc1` [Example 45, 1-(4-Methoxyphenyl)-4-(2,2,4,6,7-pentamethyl-2,3-dihydro-1-benzofuran-5-yl)-1,4-diazepane]: the activity at 1 µM was determined as 205%. On the same count and under the same terms, in the case of `Cc1ccc(N2CCN(c3c(C)c(C)c4c(c3C)CC(C)(C)O4)CC2)cc1` [Example 12, 1-(4-Methylphenyl)-4-(2,2,4,6,7-pentamethyl-2,3-dihydro-1-benzofuran-5-yl)piperazine] it was 336%. On to `COc1ccc(N2CCN(c3c(C)c(C)c4c(c3C)CC(C)(CN(C)C)O4)CC2)cc1` (centres unmarked) [Example 102, 1-{5-[4-(4-Methoxyphenyl)piperazin-1-yl]-2,4,6,7-tetramethyl-2,3-dihydro-1-benzofuran-2-yl}-N,N-dimethylmethaneamine], for which the activity at 1 µM worked out at 347%. Regarding `COc1ccc(N2CCN(c3c(C)c(C)c4c(c3C3CC3)CC(C)(C)O4)CC2)cc1` [Example 7, 1-(4-Cyclopropyl-2,2,6,7-tetramethyl-2,3-dihydro-1-benzofuran-5-yl)-4-(4-methoxyphenyl)piperazine], the activity at 1 µM worked out at 325%. Still for that read-out and setting: to `COc1ccc(N2CCN(c3c(C)c(C)c4c(c3C)CC(C)(CN3CCCC3)O4)CC2)cc1` (centres unmarked) [Example 116, 1-(4-Methoxyphenyl)-4-[2,4,6,7-tetramethyl-2-(pyrrolidin-1-ylmethyl)-2,3-dihydro-1-benzofuran-5-yl]piperazine] belongs 276%; to `COc1ccc(N2CCN(c3c(C)c(C)c4c(c3C)CC(C)(C)O4)CC2)cc1F` [Example 32, 1-(3-Fluoro-4-methoxyphenyl)-4-(2,2,4,6,7-pentamethyl-2,3-dihydro-1-benzofuran-5-yl)piperazine], above 500%. Turning to `COc1ccc(N2CCN(c3c(C)c(C)c4c(c3C)CC3(CCCC3)O4)CC2)cc1` [Example 19, 1-(4-Methoxyphenyl)-4-(4,6,7-trimethyl-3H-spiro[1-benzofuran-2,1′-cyclopentan]-5-yl)piperazine], the activity at 1 µM is 278%.

For the compound `COc1ccc(C2CN(c3c(C)c(C)c4c(c3C)CC(C)(C)O4)CCO2)cc1` (centres unmarked) [Example 15, 2-(4-Methoxyphenyl)-4-(2,2,4,6,7-pentamethyl-2,3-dihydro-1-benzofuran-5-yl)morpholine], the activity at 1 µM turned out to be 332%. Same read-out and setting: in the case of `COc1ccc(N2CCN(c3c(C)c4c(c(OC)c3C)OC(C)C4)CC2)cc1F` (centres unmarked) [Example 59, 1-(3-Fluoro-4-methoxyphenyl)-4-(7-methoxy-2,4,6-trimethyl-2,3-dihydro-1-benzofuran-5-yl)piperazine] it was 478%.

The experiment is the same for the next values; noted with them: compound 1 μM + rhIGF-1 100 ng/ml, 3 days culture; absorbance at 450 nm (class III beta-tubulin antibody); control rhIGF-1 only = 100%.
Take `COc1ccc(N2CCN(c3c(C)c(C)c4c(c3C)CC(C)(CO)O4)CC2)cc1` (single isomer, unassigned; (+)) [Example 144, (+)-{5-[4-(4-methoxyphenyl)piperazin-1-yl]-2,4,6,7-tetramethyl-2,3-dihydro-1-benzofuran-2-yl}methanol]: the “Increase Ratio of the Absorbance (% control)” value is above 500 % control. Regarding `COc1ccc(N2CCN(c3c(C)c(C)c4c(c3C)CC(C)(CO)O4)CC2)cc1` (centres unmarked) [Example 97, {5-[4-(4-Methoxyphenyl)piperazin-1-yl]-2,4,6,7-tetramethyl-2,3-dihydro-1-benzofuran-2-yl}methanol], the “Increase Ratio of the Absorbance (% control)” value is 439 % control.
